Values of other authors in patent US20250066562A1, “METHOD AND MATERIAL FOR DIFFERENTIATED SEQUESTRATION OF SUBSTANCES OF DIFFERENT SUBSTANCE GROUPS WITH THE AID OF HYDROGELS CONTAINING SULPHATED OR SULPHONATED COMPONENTS” (LEIBNIZ-INSTITUT FÜR POLYMERFORSCHUNG E.V., priority 2017, published 2025).

Tests used:
thrombin = thrombin (Homo sapiens, UniProt P00734); conditions: according to Freudenberg et al., J. Controlled Release 220 (2015) 79-88
antithrombin = antithrombin (Homo sapiens, UniProt P01008); conditions: according to Freudenberg et al., J. Controlled Release 220 (2015) 79-88
Chain of antithrombin (P01008 33-464): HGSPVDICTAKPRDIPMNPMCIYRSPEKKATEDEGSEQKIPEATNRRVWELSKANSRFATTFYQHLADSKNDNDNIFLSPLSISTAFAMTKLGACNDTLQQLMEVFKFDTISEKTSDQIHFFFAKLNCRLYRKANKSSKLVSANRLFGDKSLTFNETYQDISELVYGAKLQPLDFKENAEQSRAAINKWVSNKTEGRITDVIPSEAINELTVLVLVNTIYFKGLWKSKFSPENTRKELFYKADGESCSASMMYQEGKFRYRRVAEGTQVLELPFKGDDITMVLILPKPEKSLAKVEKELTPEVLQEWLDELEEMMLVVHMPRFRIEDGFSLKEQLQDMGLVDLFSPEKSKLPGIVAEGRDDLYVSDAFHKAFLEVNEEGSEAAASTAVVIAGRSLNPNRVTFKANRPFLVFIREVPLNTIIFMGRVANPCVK

| Interaction with thrombin (thrombin) | Interaction with antithrombin (antithrombin) | Substance |
| --- | --- | --- |
| lack of interaction | lack of interaction | N-desulfated Heparin [GB2] |
| interaction | interaction | Heparin [GB1] |
